According to patent US9856216B2, “Compounds as TNIK, IKKε and TBK1 inhibitors and pharmaceutical composition comprising same” (GREEN CROSS CORPORATION, priority 2015, dated 2018):

Columns and labels:
IKKε = target: T1, IKKε (Homo sapiens, UniProt Q14164); assay: ADP-Glo Kinase Assay, inhibition activity on IKKε; type: biochemical
T1 construct: purchased Invitrogen PR8031B
T1 sequence (Q14164 1-716): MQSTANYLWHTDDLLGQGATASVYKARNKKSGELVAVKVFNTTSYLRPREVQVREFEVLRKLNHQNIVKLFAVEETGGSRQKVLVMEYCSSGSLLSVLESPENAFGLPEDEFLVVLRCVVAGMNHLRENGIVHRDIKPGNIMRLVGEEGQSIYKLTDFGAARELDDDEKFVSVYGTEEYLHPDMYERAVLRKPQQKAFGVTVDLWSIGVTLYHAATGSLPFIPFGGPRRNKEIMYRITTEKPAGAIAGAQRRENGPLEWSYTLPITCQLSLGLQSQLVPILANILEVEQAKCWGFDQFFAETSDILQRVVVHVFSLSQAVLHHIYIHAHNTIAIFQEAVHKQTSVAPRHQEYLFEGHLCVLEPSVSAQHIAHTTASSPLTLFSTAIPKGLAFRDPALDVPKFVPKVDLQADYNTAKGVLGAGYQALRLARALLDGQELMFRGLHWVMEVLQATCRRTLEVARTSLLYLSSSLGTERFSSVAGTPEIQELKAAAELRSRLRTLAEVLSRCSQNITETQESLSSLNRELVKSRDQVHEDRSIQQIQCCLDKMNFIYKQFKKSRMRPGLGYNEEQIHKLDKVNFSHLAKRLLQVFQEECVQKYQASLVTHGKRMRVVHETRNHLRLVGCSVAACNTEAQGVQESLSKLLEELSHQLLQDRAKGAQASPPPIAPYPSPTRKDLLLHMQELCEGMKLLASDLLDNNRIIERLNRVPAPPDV
Procedure: (§1) The inhibition activities on TNIK, IKKε and TBK1 were measured by a luminometer, TNIK/IKKε/TBK1 Kinase Enzyme System (Promega, Ca# V4158; Invitrogen, PR8031B, Promega, Ca# V3991) and ADP-Glo Kinase Assay using ADP-Glo™ Kinase Analysis Kit (Promega, Ca# V9101) and a kinase reaction buffer [40 mM Tris(pH 7.5), 20 mM MgCl2, 0.1 mg/mL BSA] in accordance with the manufacturer's protocol.

TBK1 = target: T2, TBK1 (Homo sapiens, UniProt Q9UHD2); assay: ADP-Glo Kinase Assay, inhibition activity on TBK1; type: biochemical
T2 construct: purchased Promega V3991
T2 sequence (Q9UHD2 1-729): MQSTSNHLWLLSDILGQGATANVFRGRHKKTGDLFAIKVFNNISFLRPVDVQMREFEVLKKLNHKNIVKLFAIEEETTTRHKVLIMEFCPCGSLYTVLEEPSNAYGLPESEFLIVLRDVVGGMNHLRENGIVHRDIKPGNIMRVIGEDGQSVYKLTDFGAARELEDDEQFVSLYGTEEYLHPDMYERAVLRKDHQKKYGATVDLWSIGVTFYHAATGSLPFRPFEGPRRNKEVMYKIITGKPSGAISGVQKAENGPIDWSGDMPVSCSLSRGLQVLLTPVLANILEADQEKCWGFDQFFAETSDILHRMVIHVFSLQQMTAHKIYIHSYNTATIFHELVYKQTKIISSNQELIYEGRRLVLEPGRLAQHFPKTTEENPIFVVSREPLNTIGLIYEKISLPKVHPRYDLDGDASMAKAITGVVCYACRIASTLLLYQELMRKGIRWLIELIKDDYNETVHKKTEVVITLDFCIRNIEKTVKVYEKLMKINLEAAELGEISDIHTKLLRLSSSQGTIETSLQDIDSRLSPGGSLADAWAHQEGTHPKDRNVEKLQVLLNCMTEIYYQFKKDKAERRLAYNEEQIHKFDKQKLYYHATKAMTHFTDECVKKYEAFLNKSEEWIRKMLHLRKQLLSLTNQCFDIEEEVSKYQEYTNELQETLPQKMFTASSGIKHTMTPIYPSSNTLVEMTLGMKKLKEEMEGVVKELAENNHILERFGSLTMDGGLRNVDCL
Procedure: as §1

| SMILES | IC50 (IKKε) | IC50 (TBK1) |
| --- | --- | --- |
| CC(=O)Nc1ccc(Nc2nccc(-c3ccc(N)c4c3CNC4=O)n2)cc1 [Example 76, N-(4-((4-(7-amino-1-oxoisoindolin-4-yl)pyrimidin-2-yl)amino)phenyl)acetamide] | 350 nM | 100 nM |
| CC(=O)Nc1cccc(Nc2nccc(-c3ccc(N)c4c3CNC4=O)n2)c1 [Example 77, N-(3-((4-(7-amino-1-oxoisoindolin-4-yl)pyrimidin-2-yl)amino)phenyl)acetamide] | 200 nM | 27 nM |
| COc1cccc(Nc2cc(-c3ccc(N)c4c3CNC4=O)ncn2)c1 [Example 78, 7-Amino-4-(6-((3-methoxyphenyl)amino)pyrimidin-4-yl) isoindolin-1-one] | 1390 nM | 190 nM |
| Nc1ccc(-c2ccnc3[nH]ccc23)c2c1C(=O)NC2 [Example 80, 7-Amino-4-(1H-pyrrolo[2,3-b]pyridin-4-yl)isoindolin-1-one] | > 10000 nM | 9230 nM |
| CN1CCN(c2nccc(-c3ccc(N)c4c3CNC4=O)n2)CC1 [Example 81, 7-Amino-4-(2-(4-methylpiperazin-1-yl)pyrimidin-4-yl) isoindolin-1-one] | > 10000 nM | > 10000 nM |
| Nc1ccc(-c2ccnc(N3CCOCC3)n2)c2c1C(=O)NC2 [Example 82, 7-Amino-4-(2-morpholinopyrimidin-4-yl)isoindolin-1-one] | > 10000 nM | > 10000 nM |
| Cc1ccc(Nc2nccc(-c3ccc(N)c4c3CNC4=O)n2)cc1 [Example 83, 7-Amino-4-(2-(p-tolylamino)pyrimidin-4-yl)isoindolin-1-one] | 870 nM | 380 nM |
| Cc1cccc(Nc2nccc(-c3ccc(N)c4c3CNC4=O)n2)c1 [Example 84, 7-Amino-4-(2-(m-tolylamino)pyrimidin-4-yl)isoindolin-1-one] | 440 nM | 200 nM |
| CC(=O)Nc1ccc(-c2cnc3[nH]cc(-c4ccc(N)c5c4CNC5=O)c3c2)cc1 [Example 85, N-(4-(3-(7-amino-1-oxoisoindolin-4-yl)-1H-pyrrolo[2,3-b]pyridine-5-yl)phenyl)acetamide] | 160 nM | 72 nM |
| Nc1ccc(-c2c[nH]c3ncc(-c4ccc(CN5CCOCC5)s4)cc23)c2c1C(=O)NC2 [Example 86, 7-Amino-4-(5-(5-(morpholinomethyl)thiophen-2-yl)-1H-pyrrolo[2,3-b]pyridin-3-yl)isoindolin-1-one] | 56 nM | 32 nM |
| COc1cccc(Nc2nccc(-c3ccc(NC(C)=O)c4c3CNC4=O)n2)c1 [Example 162, N-(7-(2-((3-methoxyphenyl)amino)pyrimidin-4-yl)-3-oxoisoindolin-4-yl)acetamide] | 630 nM | 100 nM |
| CC(=O)Nc1ccc(-c2ccnc(Nc3cccc(F)c3)n2)c2c1C(=O)NC2 [Example 163, N-(7-(2-((3-fluorophenyl)amino)pyrimidin-4-yl)-3-oxoisoindolin-4-yl) acetamide] | > 10000 nM | 4000 nM |
| CC(=O)Nc1ccc(-c2ccnc(Nc3cccc(C)c3)n2)c2c1C(=O)NC2 [Example 164, N-(3-oxo-7-(2-(m-tolylamino)pyrimidin-4-yl)isoindolin-4-yl) acetamide] | 830 nM | 350 nM |
| CC(=O)Nc1ccc(-c2ccnc(Nc3ccc(C)cc3)n2)c2c1C(=O)NC2 [Example 165, N-(3-oxo-7-(2-(p-tolylamino)pyrimidin-4-yl)isoindolin-4-yl) acetamide] | > 10000 nM | > 10000 nM |
| CCC(=O)Nc1ccc(-c2ccnc(Nc3cccc(OC)c3)n2)c2c1C(=O)NC2 [Example 166, N-(7-(2-((3-methoxyphenyl)amino)pyrimidin-4-yl)-3-oxoisoindolin-4-yl)propionamide] | > 10000 nM | 94 nM |
| COc1cccc(Nc2nccc(-c3ccc(N(C)C)c4c3CNC4=O)n2)c1 [Example 266, 7-(Dimethylamino)-4-(2-((3-methoxyphenyl)amino)pyrimidin-4-yl)isoindolin-1-one] | 1960 nM | 750 nM |
